Reference: the supplement of paper PMC11451515

System: P12-Ichikawa
Assay: cell viability relative to DMSO control; higher = less cytotoxic
Details: 48 h
Outline: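 In 1536-well plates, 5 μl of leukemia cells were seeded per well: 500 cells/well for NOMO1 or SEM and 1000 cells/well for P12-Ichikawa. Each line had first been adapted for at least four passages in each medium. Library compounds in DMSO were pin-dosed at 11 threefold concentrations between 47 μM and 0.79 nM, and CellTiter-Glo One luminescence was read after 48 h at 37°C. Viability is a per-plate percentage relative to DMSO wells, with cell-free wells as background.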

[1] = HPLM + 10% dialyzed FBS, 0.000781 µM
[2] = HPLM + 10% dialyzed FBS, 0.00234 µM
[3] = HPLM + 10% dialyzed FBS, 0.00702 µM
[4] = HPLM + 10% dialyzed FBS, 0.0211 µM
[5] = HPLM + 10% dialyzed FBS, 0.0632 µM
[6] = HPLM + 10% dialyzed FBS, 0.19 µM
[7] = HPLM + 10% dialyzed FBS, 0.569 µM
[8] = HPLM + 10% dialyzed FBS, 1.71 µM
[9] = HPLM + 10% dialyzed FBS, 5.12 µM
[10] = HPLM + 10% dialyzed FBS, 15.4 µM
[11] = HPLM + 10% dialyzed FBS, 46.1 µM
[12] = RPMI 5 mM glucose + 10% FBS, 0.000781 µM
[13] = RPMI 5 mM glucose + 10% FBS, 0.00234 µM
[14] = RPMI 5 mM glucose + 10% FBS, 0.00702 µM
[15] = RPMI 5 mM glucose + 10% FBS, 0.0211 µM
[16] = RPMI 5 mM glucose + 10% FBS, 0.0632 µM
[17] = RPMI 5 mM glucose + 10% FBS, 0.19 µM
[18] = RPMI 5 mM glucose + 10% FBS, 0.569 µM
[19] = RPMI 5 mM glucose + 10% FBS, 1.71 µM
[20] = RPMI 5 mM glucose + 10% FBS, 5.12 µM
[21] = RPMI 5 mM glucose + 10% FBS, 15.4 µM
[22] = RPMI 5 mM glucose + 10% FBS, 46.1 µM
[23] = RPMI 5 mM glucose + 10% dialyzed FBS, 0.000781 µM
[24] = RPMI 5 mM glucose + 10% dialyzed FBS, 0.00234 µM
[25] = RPMI 5 mM glucose + 10% dialyzed FBS, 0.00702 µM
[26] = RPMI 5 mM glucose + 10% dialyzed FBS, 0.0211 µM
[27] = RPMI 5 mM glucose + 10% dialyzed FBS, 0.0632 µM
[28] = RPMI 5 mM glucose + 10% dialyzed FBS, 0.19 µM
[29] = RPMI 5 mM glucose + 10% dialyzed FBS, 0.569 µM
[30] = RPMI 5 mM glucose + 10% dialyzed FBS, 1.71 µM
[31] = RPMI 5 mM glucose + 10% dialyzed FBS, 5.12 µM
[32] = RPMI 5 mM glucose + 10% dialyzed FBS, 15.4 µM
[33] = RPMI 5 mM glucose + 10% dialyzed FBS, 46.1 µM

SMILES	cell viability [1]	cell viability [2]	cell viability [3]	cell viability [4]	cell viability [5]	cell viability [6]	cell viability [7]	cell viability [8]	cell viability [9]	cell viability [10]	cell viability [11]	cell viability [12]	cell viability [13]	cell viability [14]	cell viability [15]	cell viability [16]	cell viability [17]	cell viability [18]	cell viability [19]	cell viability [20]	cell viability [21]	cell viability [22]	cell viability [23]	cell viability [24]	cell viability [25]	cell viability [26]	cell viability [27]	cell viability [28]	cell viability [29]	cell viability [30]	cell viability [31]	cell viability [32]	cell viability [33]
CNC(=O)c1c(F)cccc1Nc1nc(Nc2cc3c(cc2OC)CCN3C(=O)CN(C)C)nc2[nH]ccc12	91.4%	97%	110%	110%	111%	109%	112%	108%	81.5%	87.4%	51%	112%	113%	105%	123%	114%	122%	120%	110%	113%	113%	51.3%	110%	117%	120%	119%	129%	122%	121%	118%	110%	103%	43.6%
CCC(CC)[C@H](NC(C)=O)[C@@H]1[C@H](O)[C@@H](C(=O)O)C[C@H]1NC(=N)N	84.6%	86.3%	86.2%	95.4%	102%	84.1%	95.6%	89%	100%	91.4%	101%	85.2%	79.7%	81.5%	86%	84.2%	75.9%	84.8%	85.1%	87.4%	78.1%	86.9%	75.7%	82.1%	81.7%	86.4%	83%	80.5%	77.4%	81.8%	76.5%	82.6%	86.8%
COc1cc2ncnc(Nc3ccc(F)c(Cl)c3)c2cc1OCCCN1CCOCC1	115%	114%	120%	115%	112%	113%	117%	111%	100%	95.4%	4.05%	122%	113%	109%	109%	112%	109%	114%	106%	104%	111%	93.7%	111%	116%	116%	115%	113%	109%	111%	112%	106%	101%	86.6%
CCCCOc1ccc(C(=O)Nc2ccc(F)cc2F)cc1	83.2%	95.7%	83.5%	86.5%	90.6%	85.3%	89.1%	97.1%	96%	102%	67.1%	78.9%	91.8%	82%	92.9%	89.4%	89.5%	89.4%	93%	89%	88.1%	84.3%	84%	83.7%	79.2%	87.1%	83.9%	80.2%	86.7%	89.3%	92.5%	87.3%	86.6%
CCCCc1oc2ccc(NS(C)(=O)=O)cc2c1C(=O)c1ccc(OCCCN(CCCC)CCCC)cc1	98.3%	99%	117%	108%	107%	108%	110%	111%	106%	12.1%	15%	96%	117%	113%	115%	118%	111%	112%	105%	98.1%	15.5%	12.7%	93.3%	99.9%	102%	109%	108%	110%	104%	109%	95.7%	20.9%	10.3%
c1ccc(-c2nn3c(c2-c2ccnc4cc(OCCN5CCOCC5)ccc24)CCC3)nc1	120%	114%	111%	119%	112%	112%	97%	109%	103%	94.9%	84.5%	112%	117%	123%	115%	112%	96.2%	89.8%	106%	119%	73%	74.6%	110%	120%	122%	119%	112%	113%	112%	108%	102%	99.3%	84.8%
CC(C)(O)CNc1nc(Nc2ccnc(C(F)(F)F)c2)nc(-c2cccc(C(F)(F)F)n2)n1	101%	103%	107%	107%	106%	102%	99.4%	104%	8.99%	10.4%	15.2%	103%	115%	100%	114%	104%	118%	111%	107%	10.2%	10.7%	13.2%	99.6%	106%	115%	117%	123%	109%	117%	118%	17.5%	21.5%	26.8%
